Article PMC9326880 (Journal of Food and Drug Analysis, 2017)
Like-named read-outs stand apart in the source and are kept apart here.

Legend:
P-gp [1] = target: T1, P-gp (Homo sapiens, UniProt P08183)
P-gp [2] = target: T1, P-gp; remark: listed apart in the source

T1 sequence (P08183 whole entry): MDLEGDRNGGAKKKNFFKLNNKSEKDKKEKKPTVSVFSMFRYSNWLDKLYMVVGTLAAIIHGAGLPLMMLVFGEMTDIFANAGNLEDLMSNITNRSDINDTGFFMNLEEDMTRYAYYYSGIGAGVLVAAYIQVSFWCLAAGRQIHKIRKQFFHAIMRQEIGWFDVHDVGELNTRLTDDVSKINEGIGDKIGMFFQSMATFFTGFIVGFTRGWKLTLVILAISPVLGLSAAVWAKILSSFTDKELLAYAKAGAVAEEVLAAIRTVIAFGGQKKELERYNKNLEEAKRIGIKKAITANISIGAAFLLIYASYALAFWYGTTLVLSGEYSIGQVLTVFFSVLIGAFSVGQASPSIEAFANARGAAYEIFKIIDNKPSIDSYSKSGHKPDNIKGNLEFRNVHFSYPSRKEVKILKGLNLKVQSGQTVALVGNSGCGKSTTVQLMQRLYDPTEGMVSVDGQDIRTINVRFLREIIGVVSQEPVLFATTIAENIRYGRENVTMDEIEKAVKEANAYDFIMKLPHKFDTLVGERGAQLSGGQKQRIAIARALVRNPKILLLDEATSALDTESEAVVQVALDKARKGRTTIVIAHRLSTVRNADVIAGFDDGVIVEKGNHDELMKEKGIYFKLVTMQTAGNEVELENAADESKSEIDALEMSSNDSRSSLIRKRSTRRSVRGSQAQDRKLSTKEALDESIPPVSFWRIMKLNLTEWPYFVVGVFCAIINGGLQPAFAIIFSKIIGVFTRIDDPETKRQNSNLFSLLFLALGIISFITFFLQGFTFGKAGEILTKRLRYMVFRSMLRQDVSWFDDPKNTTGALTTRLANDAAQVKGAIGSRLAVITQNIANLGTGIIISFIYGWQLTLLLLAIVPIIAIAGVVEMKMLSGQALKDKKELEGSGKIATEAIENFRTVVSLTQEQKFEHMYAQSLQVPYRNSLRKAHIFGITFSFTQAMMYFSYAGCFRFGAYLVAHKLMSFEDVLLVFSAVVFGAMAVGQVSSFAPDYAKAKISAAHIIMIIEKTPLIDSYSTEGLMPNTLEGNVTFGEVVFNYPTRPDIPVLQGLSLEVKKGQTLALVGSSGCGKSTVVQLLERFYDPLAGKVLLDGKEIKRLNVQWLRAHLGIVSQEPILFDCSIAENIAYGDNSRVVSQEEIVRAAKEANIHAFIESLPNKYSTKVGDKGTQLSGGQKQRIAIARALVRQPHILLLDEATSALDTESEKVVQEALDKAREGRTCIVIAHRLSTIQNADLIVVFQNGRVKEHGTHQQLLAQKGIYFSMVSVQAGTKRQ

SMILES | Decrease of intracellular accumulation of rhodamine 123 (P-gp [1]) | Influence on viability of LS 180 cells (MTT) (LS 180 cells) | Decrease of intracellular accumulation of rhodamine 123 (P-gp [2]) | Enhancement of intracellular accumulation of rhodamine 123 (P-gp [1])
COc1ccc2cc3[n+](cc2c1OC)CCc1cc2c(cc1-3)OCO2 [berberine, Berberine] | 24–39% | no toxic influences | – | –
c1c2c(cc3c1OCO3)-c1cc3ccc4c(c3c[n+]1CC2)OCO4 [coptisine, Coptisine] | 24–39% | no toxic influences | – | –
COc1cc2c(cc1OC)-c1cc3ccc(OC)c(OC)c3c[n+]1CC2 [palmatine, Palmatine] | 16–18% | no toxic influences | – | –
CO[C@H]1/C=C/O[C@@]2(C)Oc3c(C)c(O)c4c(O)c(c(/C=N/N5CCN(C)CC5)c(O)c4c3C2=O)NC(=O)/C(C)=C\C=C\[C@H](C)[C@H](O)[C@@H](C)[C@@H](O)[C@@H](C)[C@H](OC(C)=O)[C@@H]1C [rifampin, Rifampin] | – | no toxic influences | 22.7% | –
COc1ccc(CCN(C)CCCC(C#N)(c2ccc(OC)c(OC)c2)C(C)C)cc1OC (stereo not shown) [verapamil] | – | no toxic influences | – | 32.5%
